Source: patent publication US8507251B2, “Medium and method for culturing Mycobacterium avium subspecies paratuberculosis” (priority 2009, dated 2013)
Read-outs that look alike come from different tables or passages of the source.

Assays:
[1] = system: MAP strain Dominic (ATCC 43545); test: radiometric 14CO2 BACTEC 460 growth culture, MAP Dominic; assay type: cell-based, Mycobacterium avium subspecies paratuberculosis; details: for effect on growth (in words): at the doses tested
MAP strain UCF-4 = test: radiometric 14CO2 BACTEC 460 growth culture, MAP UCF-4; assay type: cell-based, Mycobacterium avium subspecies paratuberculosis; details: for effect on growth (in words): at the doses tested
MAP ATCC 19698 = test: radiometric 14CO2 BACTEC 460 growth culture, MAP 19698; assay type: cell-based, Mycobacterium avium subspecies paratuberculosis; details: for effect on growth (in words): at the doses tested
MAP 303 = test: radiometric 14CO2 BACTEC 460 growth culture, MAP 303; assay type: cell-based, Mycobacterium avium subspecies paratuberculosis; details: for effect on growth (in words): at the doses tested
M. avium ATCC 25291 = test: radiometric 14CO2 BACTEC 460 growth culture, M. avium 25291; assay type: cell-based, M. avium subspecies avium; details: for effect on growth (in words): at the doses tested
M. avium 101 = test: radiometric 14CO2 BACTEC 460 growth culture, M. avium 101; assay type: cell-based, M. avium subspecies avium; details: for effect on growth (in words): at the doses tested
[2] = system: Bacillus Callmette Guerin (BCG) M. bovis Karlson & Lessel (ATCC 19015); assay type: cell-based
[3] = system: avirulent M. tb strain ATCC 25177; assay type: cell-based, M. tuberculosis
[4] = 1 μg/ml, first of the two values (two experiments)
[5] = 4 μg/ml, first of the two values (two experiments)
[6] = 16 μg/ml, first of the two values (two experiments)
[7] = 64 μg/ml, first of the two values (two experiments)
[8] = 1 μg/ml, second of the two values (two experiments)
[9] = 4 μg/ml, second of the two values (two experiments)
[10] = 16 μg/ml, second of the two values (two experiments)
[11] = 64 μg/ml, second of the two values (two experiments)

Compound: NC(=O)c1cccnc1 [Nicotinamide, nicotinamide]
- percent change from control cGI (% ΔcGI / % −ΔcGI) ([1]; 0.1 μg/ml, second value printed in Table 4): 32%
- percent change from control cGI (% ΔcGI / % −ΔcGI) ([1]; 0.4 μg/ml, second value printed in Table 4): 98%
- percent change from control cGI (% ΔcGI / % −ΔcGI) [1, 4]: 110%
- percent change from control cGI (% ΔcGI / % −ΔcGI) ([1]; 1.6 μg/ml, second value printed in Table 4): 156%
- percent change from control cGI (% ΔcGI / % −ΔcGI) [1, 5]: 115%
- percent change from control cGI (% ΔcGI / % −ΔcGI) ([1]; 6.4 μg/ml, second value printed in Table 4): 156%
- percent change from control cGI (% ΔcGI / % −ΔcGI) [1, 6]: 125%
- percent change from control cGI (% ΔcGI / % −ΔcGI) [1, 7]: 106%
- effect on growth (in words) [1]: enhanced
- percent increase from control cGI (%+ΔcGI) ([1]; for 1, 4, 16 and 64 μg/ml, first experiment): ≥ 100%
- percent change from control cGI (% ΔcGI / % −ΔcGI) (MAP strain UCF-4; 0.1 μg/ml): 20%
- percent change from control cGI (% ΔcGI / % −ΔcGI) (MAP strain UCF-4; 0.4 μg/ml): 52%
- percent change from control cGI (% ΔcGI / % −ΔcGI) (MAP strain UCF-4; 1.6 μg/ml): 73%
- percent change from control cGI (% ΔcGI / % −ΔcGI) (MAP strain UCF-4; 6.4 μg/ml): 79%
- effect on growth (in words) (MAP strain UCF-4): enhanced
- percent change from control cGI (% ΔcGI / % −ΔcGI) (MAP ATCC 19698; 0.1 μg/ml): −6%
- percent change from control cGI (% ΔcGI / % −ΔcGI) (MAP ATCC 19698; 0.4 μg/ml): −2%
- percent change from control cGI (% ΔcGI / % −ΔcGI) (MAP ATCC 19698; 1.6 μg/ml): −8%
- percent change from control cGI (% ΔcGI / % −ΔcGI) (MAP ATCC 19698; 6.4 μg/ml): −7%
- effect on growth (in words) (MAP ATCC 19698): no effect
- percent change from control cGI (% ΔcGI / % −ΔcGI) (MAP 303; 0.1 μg/ml): −5%
- percent change from control cGI (% ΔcGI / % −ΔcGI) (MAP 303; 0.4 μg/ml): −28%
- percent change from control cGI (% ΔcGI / % −ΔcGI) (MAP 303; 1.6 μg/ml): 11%
- percent change from control cGI (% ΔcGI / % −ΔcGI) (MAP 303; 6.4 μg/ml): 3%
- effect on growth (in words) (MAP 303): no effect
- percent change from control cGI (% ΔcGI / % −ΔcGI) (M. avium ATCC 25291; 0.1 μg/ml): 23%
- percent change from control cGI (% ΔcGI / % −ΔcGI) (M. avium ATCC 25291; 0.4 μg/ml): 105%
- percent change from control cGI (% ΔcGI / % −ΔcGI) (M. avium ATCC 25291; 1.6 μg/ml): 157%
- percent change from control cGI (% ΔcGI / % −ΔcGI) (M. avium ATCC 25291; 6.4 μg/ml): 144%
- effect on growth (in words) (M. avium ATCC 25291): caused enhancement of growth
- percent change from control cGI (% ΔcGI / % −ΔcGI) (M. avium 101; 0.1 μg/ml): 6%
- percent change from control cGI (% ΔcGI / % −ΔcGI) (M. avium 101; 0.4 μg/ml): −21%
- percent change from control cGI (% ΔcGI / % −ΔcGI) (M. avium 101; 1.6 μg/ml): 7%
- percent change from control cGI (% ΔcGI / % −ΔcGI) (M. avium 101; 6.4 μg/ml): 58%
- effect on growth (in words) (M. avium 101): caused enhancement of growth
- effect on growth (in words) ([2]; at the doses tested): no effect
- effect on growth (in words) [3]: no effect

Compound: O=C(O)c1cccnc1 [Nicotinic acid, nicotinic acid]
- percent change from control cGI (% ΔcGI / % −ΔcGI) [1, 4]: 46%
- percent change from control cGI (% ΔcGI / % −ΔcGI) [1, 8]: 71%
- percent change from control cGI (% ΔcGI / % −ΔcGI) [1, 5]: 133%
- percent change from control cGI (% ΔcGI / % −ΔcGI) [1, 9]: 181%
- percent change from control cGI (% ΔcGI / % −ΔcGI) [1, 6]: 195%
- percent change from control cGI (% ΔcGI / % −ΔcGI) [1, 10]: 198%
- percent change from control cGI (% ΔcGI / % −ΔcGI) [1, 7]: 197%
- percent change from control cGI (% ΔcGI / % −ΔcGI) [1, 11]: 225%
- percent change from control cGI (% ΔcGI / % −ΔcGI) (MAP strain UCF-4; 1 μg/ml): 48%
- percent change from control cGI (% ΔcGI / % −ΔcGI) (MAP strain UCF-4; 4 μg/ml): 63%
- percent change from control cGI (% ΔcGI / % −ΔcGI) (MAP strain UCF-4; 16 μg/ml): 101%
- percent change from control cGI (% ΔcGI / % −ΔcGI) (MAP strain UCF-4; 64 μg/ml): 92%
- percent change from control cGI (% ΔcGI / % −ΔcGI) (MAP strain UCF-4; 64 μg/ml, listed as nicotinic acid): 92%
- percent change from control cGI (% ΔcGI / % −ΔcGI) (MAP ATCC 19698; 1 μg/ml): −17%
- percent change from control cGI (% ΔcGI / % −ΔcGI) (MAP ATCC 19698; 4 μg/ml): −4%
- percent change from control cGI (% ΔcGI / % −ΔcGI) (MAP ATCC 19698; 16 μg/ml): 12%
- percent change from control cGI (% ΔcGI / % −ΔcGI) (MAP ATCC 19698; 64 μg/ml): 30%
- effect on growth (in words) (MAP ATCC 19698): far less nicotinic acid induced enhancement
- percent change from control cGI (% ΔcGI / % −ΔcGI) (MAP 303; 1 μg/ml): −4%
- percent change from control cGI (% ΔcGI / % −ΔcGI) (MAP 303; 4 μg/ml): 2%
- percent change from control cGI (% ΔcGI / % −ΔcGI) (MAP 303; 16 μg/ml): −4%
- percent change from control cGI (% ΔcGI / % −ΔcGI) (MAP 303; 64 μg/ml): 22%
- effect on growth (in words) (MAP 303): far less nicotinic acid induced enhancement
- percent change from control cGI (% ΔcGI / % −ΔcGI) (M. avium ATCC 25291; 1 μg/ml): 98%
- percent change from control cGI (% ΔcGI / % −ΔcGI) (M. avium ATCC 25291; 4 μg/ml): 170%
- percent change from control cGI (% ΔcGI / % −ΔcGI) (M. avium ATCC 25291; 16 μg/ml): 167%
- percent change from control cGI (% ΔcGI / % −ΔcGI) (M. avium ATCC 25291; 64 μg/ml): 175%
- effect on growth (in words) (M. avium ATCC 25291): enhanced growth
- percent change from control cGI (% ΔcGI / % −ΔcGI) (M. avium 101; 1 μg/ml): 41%
- percent change from control cGI (% ΔcGI / % −ΔcGI) (M. avium 101; 4 μg/ml): 47%
- percent change from control cGI (% ΔcGI / % −ΔcGI) (M. avium 101; 16 μg/ml): 40%
- percent change from control cGI (% ΔcGI / % −ΔcGI) (M. avium 101; 64 μg/ml): 56%
- effect on growth (in words) (M. avium 101): enhanced growth

Compound: NNC(=O)c1ccncc1 [INH, Isoniazid, reference compound]
- percent change from control cGI (% ΔcGI / % −ΔcGI) [1, 4]: 18%
- percent change from control cGI (% ΔcGI / % −ΔcGI) [1, 8]: 11%
- percent change from control cGI (% ΔcGI / % −ΔcGI) [1, 5]: 9%
- percent change from control cGI (% ΔcGI / % −ΔcGI) [1, 9]: 29%
- percent change from control cGI (% ΔcGI / % −ΔcGI) [1, 6]: −4%
- percent change from control cGI (% ΔcGI / % −ΔcGI) [1, 10]: 9%
- percent change from control cGI (% ΔcGI / % −ΔcGI) [1, 7]: −65%
- percent change from control cGI (% ΔcGI / % −ΔcGI) [1, 11]: −52%
- effect on growth (in words) [1]: no dose-dependent inhibition
- percent change from control cGI (% ΔcGI / % −ΔcGI) (MAP strain UCF-4; 1 μg/ml): −5%
- percent change from control cGI (% ΔcGI / % −ΔcGI) (MAP strain UCF-4; 4 μg/ml): 2%
- percent change from control cGI (% ΔcGI / % −ΔcGI) (MAP strain UCF-4; 16 μg/ml): −4%
- percent change from control cGI (% ΔcGI / % −ΔcGI) (MAP strain UCF-4; 64 μg/ml): −35%
- effect on growth (in words) (MAP strain UCF-4): no dose-dependent inhibition
- percent change from control cGI (% ΔcGI / % −ΔcGI) (MAP ATCC 19698; 1 μg/ml): −20%
- percent change from control cGI (% ΔcGI / % −ΔcGI) (MAP ATCC 19698; 4 μg/ml): −14%
- percent change from control cGI (% ΔcGI / % −ΔcGI) (MAP ATCC 19698; 16 μg/ml): −17%
- percent change from control cGI (% ΔcGI / % −ΔcGI) (MAP ATCC 19698; 64 μg/ml): −63%
- effect on growth (in words) (MAP ATCC 19698): no dose-dependent inhibition
- percent change from control cGI (% ΔcGI / % −ΔcGI) (MAP 303; 1 μg/ml): −18%
- percent change from control cGI (% ΔcGI / % −ΔcGI) (MAP 303; 4 μg/ml): −6%
- percent change from control cGI (% ΔcGI / % −ΔcGI) (MAP 303; 16 μg/ml): −12%
- percent change from control cGI (% ΔcGI / % −ΔcGI) (MAP 303; 64 μg/ml): −52%
- effect on growth (in words) (MAP 303): no dose-dependent inhibition
- percent change from control cGI (% ΔcGI / % −ΔcGI) (M. avium ATCC 25291; 1 μg/ml): 176%
- percent change from control cGI (% ΔcGI / % −ΔcGI) (M. avium ATCC 25291; 4 μg/ml): 89%
- percent change from control cGI (% ΔcGI / % −ΔcGI) (M. avium ATCC 25291; 16 μg/ml): 189%
- percent change from control cGI (% ΔcGI / % −ΔcGI) (M. avium ATCC 25291; 64 μg/ml): −90%
- percent change from control cGI (% ΔcGI / % −ΔcGI) (M. avium 101; 1 μg/ml): −48%
- percent change from control cGI (% ΔcGI / % −ΔcGI) (M. avium 101; 4 μg/ml): −96%
- percent change from control cGI (% ΔcGI / % −ΔcGI) (M. avium 101; 16 μg/ml): −95%
- percent change from control cGI (% ΔcGI / % −ΔcGI) (M. avium 101; 64 μg/ml): −97%
- percent decrease from control cGI (%−ΔcGI) (M. avium 101; 64 μg/ml, value is a decrease): ≥ 97%
- percent decrease from control cGI (%−ΔcGI) [2]: ≥ 97%
- percent change from control cGI (% ΔcGI / % −ΔcGI) ([3]; 1 μg/ml): −97%
- percent decrease from control cGI (%−ΔcGI) ([3]; 1 μg/ml): 97%
- percent change from control cGI (% ΔcGI / % −ΔcGI) ([3]; 4 μg/ml): −98%
- percent change from control cGI (% ΔcGI / % −ΔcGI) ([3]; 16 μg/ml): −98%
- percent change from control cGI (% ΔcGI / % −ΔcGI) ([3]; 64 μg/ml): −98%

Compound: O=C(O)c1ccccc1O [salicylic acid, reference compound]
- percent change from control cGI (% ΔcGI / % −ΔcGI) (MAP 303; 64 μg/ml): 66%
- percent change from control cGI (% ΔcGI / % −ΔcGI) (M. avium ATCC 25291; 64 μg/ml): 104%
- percent change from control cGI (% ΔcGI / % −ΔcGI) ([2]; 64 μg/ml): 95%
